The test system of this assay is SU-DHL-4 cells. The assay can be described thus: Inhibitory effect on cell viability in SU-DHL-4 cell line (Test Example 1). Particulars: SU-DHL-4 cells, 72 hours, Cell Counting Kit-8, concentration showing 90% inhibition of cell viability, read-out: SU-DHL-4 Cell Viability Inhibition Rate IC90. The class given is cell-based, human. Summed up: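 SU-DHL-4 cells were grown at 37° C. under 5% CO2 in RPMI1640 with 10 vol % heat-inactivated FBS plus penicillin/streptomycin, seeded and precultured for 18 to 25 hours, then exposed to test compound at 0.1 vol % DMSO for 72 hours. Viability was read with Cell Counting Kit-8 by absorbance at 450 nm.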

Where two headings read alike, the source gives them in different places.

The IC90 is the concentration needed for an effect of 90%.

`CCC(=O)N1c2ccccc2[C@H](Nc2ccc(NC(=O)CNCC(=O)Nc3ccc(N[C@@H]4C[C@H](C)N(C(=O)CC)c5ccccc54)nc3)cc2)C[C@@H]1C` (relative stereo) [Compound 17g, N-(4-(((2S,4R)-2-Methyl-1-propionyl-1,2,3,4-tetrahydroquinolin-4-yl)amino)phenyl)-2-((2-((6-(((2S*,4R*)-2-methyl-1-propionyl-1,2,3,4-tetrahydroquinolin-4-yl)amino)pyridin-3-yl)amino)-2-oxoethyl)amino)acetamide]: for the setting “Homo sapiens”, the IC90 turned out to be 32.7 nM.
In the case of `CCNC(=O)C[C@@H]1N=C(c2ccc(C(=O)NCCCNC(=O)c3ccc(N[C@@H]4C[C@H](C)N(C(=O)CC)c5ccccc54)cc3)cc2)c2c(sc(C)c2C)-n2c(C)nnc21` [Compound 13e, 4-((S)-6-(2-(Ethylamino)-2-oxoethyl)-2,3,9-trimethyl-6H-thieno[3,2-f][1,2,4]triazolo[4,3-a][1,4]diazepin-4-yl)-N-(3-(4-(((2S,4R)-2-methyl-1-propionyl-1,2,3,4-tetrahydroquinolin-4-yl)amino)benzamide)propyl)benzamide], the 90% effect concentration (IC90) stood at 3.33 nM.
For the compound `CCC(=O)N1c2ccccc2[C@H](Nc2ccc(-n3cc(CNC(=O)C4CCN(Cc5cc(O)cc(-c6c(C)noc6C)c5)CC4)nn3)cc2)C[C@@H]1C` [Compound 16d, 1-(3-(3,5-Dimethylisoxazol-4-yl)-5-hydroxybenzyl)-N-((1-(4-(((2S,4R)-2-methyl-1-propionyl-1,2,3,4-tetrahydroquinolin-4-yl)amino)phenyl)-1H-1,2,3-triazol-4-yl)methyl)piperidine-4-carboxamide], the concentration for an effect of 90% (IC90) (Homo sapiens) is 0.17 nM.
Same read-out and setting: the value for `CCC(=O)N1c2ccccc2[C@H](Nc2ccc(NC(=O)CCCC(=O)NC3CC4(C3)CN(Cc3cc(O)cc(-c5c(C)noc5C)c3)C4)cc2)C[C@@H]1C` [Compound 16g, N^1-(2-(3-(3,5-Dimethylisoxazol-4-yl)-5-hydroxybenzyl)-2-azaspiro[3.3]heptan-6-yl)-N5-(4-(((2S,4R)-2-methyl-1-propionyl-1,2,3,4-tetrahydroquinolin-4-yl)amino)phenyl)glutaramide] was 14.9 nM.
Take `CCC(=O)N1c2ccccc2[C@H](Nc2ccc(-n3cc(CNC(=O)c4cccc(Oc5ccc(NS(=O)(=O)CC)cc5-c5cn(C)c(=O)cc5OC)c4)nn3)cc2)C[C@@H]1C` [Compound 16n, 3-(4-(Ethylsulfonamide)-2-(4-methoxy-1-methyl-6-oxo-1,6-dihydropyridin-3-yl)phenoxy)-N-((1-(4-(((2S,4R)-2-methyl-1-propionyl-1,2,3,4-tetrahydroquinolin-4-yl)amino)phenyl)-1H-1,2,3-triazol-4-yl)methyl)benzamide]: the IC90 stood at 0.48 nM.
Still for that read-out and setting: the value for `CCC(=O)N1c2ccccc2[C@H](Nc2ccc(Cc3cnc4n3CCN(C(=O)C3CCC(N[C@@H]5C[C@H](C)N(C(=O)CC)c6ccccc65)CC3)C4)cc2)C[C@@H]1C` (relative stereo) [Compound 7l, 1-((2S*,4R*)-2-Methyl-4-(((1r,4R)-4-(3-(4-(((2S,4R)-2-methyl-1-propionyl-1,2,3,4-tetrahydroquinolin-4-yl)amino)benzyl)-5,6,7,8-tetrahydroimidazo[1,2-a]pyrazine-7-carbonyl)cyclohexyl)amino)-3,4-dihydroquinolin-1(2H)-yl)propan-1-one] was 0.28 nM; that for `CCC(=O)N1c2ccccc2[C@H](Nc2ccc(NC(=O)c3cccc(NC(=O)c4ccc(N[C@@H]5C[C@H](C)N(C(=O)CC)c6ccccc65)cc4)c3)cc2)C[C@@H]1C` (relative stereo) [Compound 2j, 3-(4-{[(2S,4R)-2-Methyl-1-propionyl-1,2,3,4-tetrahydroquinolin-4-yl]amino}benzamide)-N-(4-{[(2S*,4R*)-2-methyl-1-propionyl-1,2,3,4-tetrahydroquinolin-4-yl]amino}phenyl)benzamide] was 0.36 nM; that for `Cc1sc2c(c1C)C(c1ccc(NC(=O)CNC(=O)c3ccc(C4=N[C@@H](CC(=O)OC(C)(C)C)c5nnc(C)n5-c5sc(C)c(C)c54)cc3)cc1)=N[C@@H](CC(=O)OC(C)(C)C)c1nnc(C)n1-2` [Compound 2b, tert-Butyl 2-[(S)-4-{4-[2-(4-{(S)-6-[2-(tert-butoxy)-2-oxoethyl]-2,3,9-trimethyl-6H-thieno[3,2-f][1,2,4]triazolo[4,3-a][1,4]diazepin-4-yl}benzamide)acetamide]phenyl}-2,3,9-trimethyl-6H-thieno[3,2-f][1,2,4]triazolo[4,3-a][1,4]diazepin-6-yl]acetate] was 1.52 nM.
On the same count and under the same terms, with `CCC(=O)N1c2ccccc2[C@H](Nc2ccc(NC(=O)NCCNC(=O)C3CCC(N[C@@H]4C[C@H](C)N(C(=O)CC)c5ccccc54)CC3)cc2)C[C@@H]1C` (relative stereo) [Compound 8n, (1R,4r)-4-(((2S*,4R*)-2-Methyl-1-propionyl-1,2,3,4-tetrahydroquinolin-4-yl)amino)-N-(2-(3-(4-(((2S,4R)-2-methyl-1-propionyl-1,2,3,4-tetrahydroquinolin-4-yl)amino)phenyl)ureido)ethyl)cyclohexane-1-carboxamide] the figure was 1.17 nM; with `CCC(=O)N1c2ccccc2[C@H](Nc2ccc(C(=O)NCC#CC(=O)NC3CC(N[C@@H]4C[C@H](C)N(C(=O)CC)c5ccccc54)C3)cc2)C[C@@H]1C` (relative stereo) [Compound 10f, 4-(((2S,4R)-2-Methyl-1-propionyl-1,2,3,4-tetrahydroquinolin-4-yl)amino)-N-(4-(((1R,3R)-3-(((2S*,4R*)-2-methyl-1-propionyl-1,2,3,4-tetrahydroquinolin-4-yl)amino)cyclobutyl)amino)-4-oxobut-2-yn-1-yl)benzamide], 0.92 nM.
With `CCC(=O)N1c2ccccc2[C@H](Nc2ccc(NC(=O)NCC(=O)NC3CCC(N[C@@H]4C[C@H](C)N(C(=O)CC)c5ccccc54)CC3)cc2)C[C@@H]1C` (relative stereo) [Compound 9c, N-((1R,4R)-4-(((2S*,4R*)-2-Methyl-1-propionyl-1,2,3,4-tetrahydroquinolin-4-yl)amino)cyclohexyl)-2-(3-(4-(((2S,4R)-2-methyl-1-propionyl-1,2,3,4-tetrahydroquinolin-4-yl)amino)phenyl)ureido)acetamide], the IC90 amounted to 12.4 nM.
As to `CCC(=O)N1c2ccccc2[C@H](Nc2ccc(NC(=O)C3CN(C(=O)c4ccc(OCCN5CCN(C)C(=O)[C@H]5C)cc4)C3)cc2)C[C@@H]1C` [Compound 16a, 1-(4-(2-((R)-2,4-Dimethyl-3-oxopiperazin-1-yl)ethoxy)benzoyl)-N-(4-(((2S,4R)-2-methyl-1-propionyl-1,2,3,4-tetrahydroquinolin-4-yl)amino)phenyl)azetidine-3-carboxamide], the IC90 (Homo sapiens) was 11.1 nM.
Turning to `Cc1sc2c(c1C)C(c1ccc(C(=O)NC3CCN(C(=O)c4ccc(C5=N[C@@H](CC(=O)OC(C)(C)C)c6nnc(C)n6-c6sc(C)c(C)c65)cc4)CC3)cc1)=N[C@@H](CC(=O)OC(C)(C)C)c1nnc(C)n1-2` [Compound 1i, tert-Butyl 2-((S)-4-{4-[4-(4-{(S)-6-[2-(tert-butoxy)-2-oxoethyl]-2,3,9-trimethyl-6H-thieno[3,2-f][1,2,4]triazolo[4,3-a][1,4]diazepin-4-yl}benzamide)piperidine-1-carbonyl]phenyl}-2,3,9-trimethyl-6H-thieno[3,2-f][1,2,4]triazolo[4,3-a][1,4]diazepin-6-yl)acetate], the IC90 turned out to be 0.54 nM.
Same read-out and setting: the value for `CCC(=O)N1c2ccccc2[C@H](Nc2ccc(NC(=O)CCCC(=O)NC3CCC(Cn4c(CC)cc5c4CCCC5=O)CC3)cc2)C[C@@H]1C` (stereo partly drawn) [Compound 17b, N^1-((1r,4r)-4-((2-Ethyl-4-oxo-4,5,6,7-tetrahydro-1H-indol-1-yl)methyl)cyclohexyl)-N5-(4-(((2S,4R)-2-methyl-1-propionyl-1,2,3,4-tetrahydroquinolin-4-yl)amino)phenyl)glutaramide] was 1.74 nM; that for `CCC(=O)N1c2ccccc2[C@H](Nc2ccc(NC(=O)C3CCN(C(=O)C4CCC(N[C@@H]5C[C@H](C)N(C(=O)CC)c6ccccc65)CC4)CC3)cc2)C[C@@H]1C` (relative stereo) [Compound 8q, 1-((1R,4r)-4-(((2S*,4R*)-2-Methyl-1-propionyl-1,2,3,4-tetrahydroquinolin-4-yl)amino)cyclohexane-1-carbonyl)-N-(4-(((2S,4R)-2-methyl-1-propionyl-1,2,3,4-tetrahydroquinolin-4-yl)amino)phenyl)piperidine-4-carboxamide] was 19 nM; that for `CCC(=O)N1c2ccccc2[C@H](Nc2ccc(Cn3cc(C(=O)N[C@H]4CC[C@H](N[C@@H]5C[C@H](C)N(C(=O)CC)c6ccccc65)CC4)nn3)cc2)C[C@@H]1C` [Compound 8f, 1-(4-(((2S,4R)-2-Methyl-1-propionyl-1,2,3,4-tetrahydroquinolin-4-yl)amino)benzyl)-N-((1R,4R)-4-(((2S,4R)-2-methyl-1-propionyl-1,2,3,4-tetrahydroquinolin-4-yl)amino)cyclohexyl)-1H-1,2,3-triazole-4-carboxamide] was 1.14 nM.
Regarding `CCC(=O)N1c2ccccc2[C@H](Nc2ccc(NC(=O)NCC(=O)NC3CCN(Cc4cc(O)cc(-c5c(C)noc5C)c4)CC3)cc2)C[C@@H]1C` [Compound 17j, N-(1-(3-(3,5-Dimethylisoxazol-4-yl)-5-hydroxybenzyl)piperidin-4-yl)-2-(3-(4-(((2S,4R)-2-methyl-1-propionyl-1,2,3,4-tetrahydroquinolin-4-yl)amino)phenyl)ureido)acetamide], the IC90 (Homo sapiens) was 29 nM.
For `CCC(=O)N1c2ccccc2[C@H](NCc2ccc(C(=O)NCc3cn(-c4ccc(N[C@@H]5C[C@H](C)N(C(=O)CC)c6ccccc65)cc4)nn3)cc2)C[C@@H]1C` (relative stereo) [Compound 10h, 4-((a2S*,4R*)-2-Methyl-1-propionyl-1,2,3,4-tetrahydroquinolin-4-yl)amino)methyl)-N-((1-(4-(((2S,4R)-2-methyl-1-propionyl-1,2,3,4-tetrahydroquinolin-4-yl)amino)phenyl)-1H-1,2,3-triazol-4-yl)methyl)benzamide], the IC90 was 0.35 nM.
